In publication PMC8799717, “Pharmacological targeting PIKfyve and tubulin as an effective treatment strategy for double-hit lymphoma” (Cell Death Discovery, 2022):

How the values were obtained:
Assay in all cases: biochemical
Design in all cases: KINOMEscan active-site-directed competition binding panel, 468 kinases, percent of DMSO control at 1 uM
Conditions in all cases: KINOMEscan binding, percent of DMSO control; read-out: Ctrl%
[1] = target: T1, RSK4(Kin.Dom.2-C-terminal) (Homo sapiens, UniProt Q9UK32)
T1 construct: gene RPS6KA6; Kin.Dom.2-C-terminal

MAP3K1 = MAP3K1 (Homo sapiens, UniProt Q13233)
BMX = BMX (Homo sapiens, UniProt P51813)
MAPKAPK2 = MAPKAPK2 (Homo sapiens, UniProt P49137)
FLT1 = FLT1 (Homo sapiens, UniProt P17948)
PIK3CA(M1043I) = PIK3CA(M1043I) (Homo sapiens, UniProt P42336, M1043I)
MKNK2 = MKNK2 (Homo sapiens, UniProt Q9HBH9)
IKK-beta = target: T2, IKK-beta (Homo sapiens, UniProt O14920)
T2 construct: gene IKBKB

BRK = target: T3, BRK (Homo sapiens, UniProt Q13882)
T3 construct: gene PTK6

DCAMKL3 = target: T4, DCAMKL3 (Homo sapiens, UniProt Q9C098)
T4 construct: gene DCLK3

PHKG1 = PHKG1 (Homo sapiens, UniProt Q16816)
MLK3 = target: T5, MLK3 (Homo sapiens, UniProt Q16584)
T5 construct: gene MAP3K11

BRSK1 = BRSK1 (Homo sapiens, UniProt Q8TDC3)
CAMK2G = CAMK2G (Homo sapiens, UniProt Q13555)
FRK = FRK (Homo sapiens, UniProt P42685)
CASK = CASK (Homo sapiens, UniProt O14936)
WEE1 = WEE1 (Homo sapiens, UniProt P30291)
LIMK2 = LIMK2 (Homo sapiens, UniProt P53671)
BIKE = target: T6, BIKE (Homo sapiens, UniProt Q9NSY1)
T6 construct: gene BMP2K

YES = target: T7, YES (Homo sapiens, UniProt P07947)
T7 construct: gene YES1

MST2 = target: T8, MST2 (Homo sapiens, UniProt Q13188)
T8 construct: gene STK3

TXK = TXK (Homo sapiens, UniProt P42681)
ACVR2A = ACVR2A (Homo sapiens, UniProt P27037)
EPHA3 = EPHA3 (Homo sapiens, UniProt P29320)
Sequence of EPHA3 (P29320 whole entry): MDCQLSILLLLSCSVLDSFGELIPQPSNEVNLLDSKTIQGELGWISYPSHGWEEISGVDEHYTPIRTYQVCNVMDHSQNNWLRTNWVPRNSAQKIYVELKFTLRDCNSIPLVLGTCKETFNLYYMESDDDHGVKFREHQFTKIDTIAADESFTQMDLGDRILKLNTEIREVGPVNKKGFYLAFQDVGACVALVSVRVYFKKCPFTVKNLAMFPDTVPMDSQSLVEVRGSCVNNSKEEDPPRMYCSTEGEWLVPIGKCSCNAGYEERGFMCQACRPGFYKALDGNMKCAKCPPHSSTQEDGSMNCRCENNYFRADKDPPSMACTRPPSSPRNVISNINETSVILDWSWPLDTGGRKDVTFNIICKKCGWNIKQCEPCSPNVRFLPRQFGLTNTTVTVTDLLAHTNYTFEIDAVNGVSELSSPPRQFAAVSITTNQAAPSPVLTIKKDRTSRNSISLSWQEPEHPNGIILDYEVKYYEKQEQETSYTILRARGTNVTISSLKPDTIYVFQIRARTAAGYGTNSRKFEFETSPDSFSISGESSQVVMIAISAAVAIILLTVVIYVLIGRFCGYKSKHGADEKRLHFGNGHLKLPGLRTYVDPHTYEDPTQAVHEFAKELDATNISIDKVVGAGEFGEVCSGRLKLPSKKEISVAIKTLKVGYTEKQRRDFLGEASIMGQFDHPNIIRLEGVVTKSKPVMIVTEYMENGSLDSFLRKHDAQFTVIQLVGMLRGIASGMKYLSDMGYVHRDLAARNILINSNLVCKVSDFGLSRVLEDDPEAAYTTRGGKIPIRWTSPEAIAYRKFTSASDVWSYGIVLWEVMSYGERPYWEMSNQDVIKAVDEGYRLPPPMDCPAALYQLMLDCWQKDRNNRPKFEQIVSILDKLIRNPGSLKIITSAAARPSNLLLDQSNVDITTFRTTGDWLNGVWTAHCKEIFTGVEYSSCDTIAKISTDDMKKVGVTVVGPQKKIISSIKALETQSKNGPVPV

Sequence of CASK (O14936 whole entry): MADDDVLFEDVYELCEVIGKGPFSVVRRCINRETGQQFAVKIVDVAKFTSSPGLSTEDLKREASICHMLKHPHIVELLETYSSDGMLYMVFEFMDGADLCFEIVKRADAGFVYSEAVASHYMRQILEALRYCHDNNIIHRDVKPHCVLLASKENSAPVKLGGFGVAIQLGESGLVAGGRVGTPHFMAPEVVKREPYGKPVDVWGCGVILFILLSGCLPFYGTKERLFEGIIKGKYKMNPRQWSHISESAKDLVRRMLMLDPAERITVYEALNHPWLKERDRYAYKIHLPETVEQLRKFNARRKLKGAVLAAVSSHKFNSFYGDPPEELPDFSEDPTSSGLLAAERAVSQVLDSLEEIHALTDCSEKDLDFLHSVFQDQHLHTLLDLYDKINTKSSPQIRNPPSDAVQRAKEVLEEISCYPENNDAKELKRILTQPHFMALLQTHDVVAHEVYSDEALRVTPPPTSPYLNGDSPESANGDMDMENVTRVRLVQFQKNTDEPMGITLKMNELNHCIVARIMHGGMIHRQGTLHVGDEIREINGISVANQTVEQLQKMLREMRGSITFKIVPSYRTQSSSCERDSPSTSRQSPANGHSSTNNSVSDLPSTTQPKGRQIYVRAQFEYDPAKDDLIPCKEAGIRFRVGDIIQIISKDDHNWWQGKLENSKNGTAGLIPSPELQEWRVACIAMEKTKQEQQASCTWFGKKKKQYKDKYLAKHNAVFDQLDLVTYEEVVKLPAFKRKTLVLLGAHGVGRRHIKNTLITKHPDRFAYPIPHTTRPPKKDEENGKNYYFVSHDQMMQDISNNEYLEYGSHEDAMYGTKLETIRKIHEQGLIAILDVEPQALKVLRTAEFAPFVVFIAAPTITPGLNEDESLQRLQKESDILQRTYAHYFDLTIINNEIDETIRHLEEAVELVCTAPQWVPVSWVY
Sequence of PHKG1 (Q16816 whole entry): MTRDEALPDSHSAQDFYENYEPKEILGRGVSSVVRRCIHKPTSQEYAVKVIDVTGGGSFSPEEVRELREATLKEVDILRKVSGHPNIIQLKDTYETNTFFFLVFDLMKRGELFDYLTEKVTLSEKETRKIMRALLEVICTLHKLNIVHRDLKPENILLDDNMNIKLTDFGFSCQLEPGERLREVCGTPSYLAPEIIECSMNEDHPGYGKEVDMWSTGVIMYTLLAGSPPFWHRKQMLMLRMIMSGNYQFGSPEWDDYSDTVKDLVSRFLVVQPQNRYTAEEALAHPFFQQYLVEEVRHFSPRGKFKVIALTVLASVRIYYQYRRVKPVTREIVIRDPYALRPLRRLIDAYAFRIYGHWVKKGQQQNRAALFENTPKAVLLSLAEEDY
Sequence of MKNK2 (Q9HBH9 whole entry): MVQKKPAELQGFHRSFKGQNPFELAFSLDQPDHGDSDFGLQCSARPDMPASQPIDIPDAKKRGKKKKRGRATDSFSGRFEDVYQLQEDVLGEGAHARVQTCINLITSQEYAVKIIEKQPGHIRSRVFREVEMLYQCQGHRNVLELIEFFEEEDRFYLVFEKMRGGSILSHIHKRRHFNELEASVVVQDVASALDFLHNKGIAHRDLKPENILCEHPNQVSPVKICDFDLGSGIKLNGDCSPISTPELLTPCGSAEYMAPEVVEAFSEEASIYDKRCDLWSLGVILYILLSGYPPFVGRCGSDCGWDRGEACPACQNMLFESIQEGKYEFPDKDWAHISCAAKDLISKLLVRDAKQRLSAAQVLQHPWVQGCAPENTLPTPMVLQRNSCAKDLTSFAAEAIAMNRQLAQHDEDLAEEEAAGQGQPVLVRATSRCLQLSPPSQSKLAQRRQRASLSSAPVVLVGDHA
T5 sequence (Q16584 whole entry): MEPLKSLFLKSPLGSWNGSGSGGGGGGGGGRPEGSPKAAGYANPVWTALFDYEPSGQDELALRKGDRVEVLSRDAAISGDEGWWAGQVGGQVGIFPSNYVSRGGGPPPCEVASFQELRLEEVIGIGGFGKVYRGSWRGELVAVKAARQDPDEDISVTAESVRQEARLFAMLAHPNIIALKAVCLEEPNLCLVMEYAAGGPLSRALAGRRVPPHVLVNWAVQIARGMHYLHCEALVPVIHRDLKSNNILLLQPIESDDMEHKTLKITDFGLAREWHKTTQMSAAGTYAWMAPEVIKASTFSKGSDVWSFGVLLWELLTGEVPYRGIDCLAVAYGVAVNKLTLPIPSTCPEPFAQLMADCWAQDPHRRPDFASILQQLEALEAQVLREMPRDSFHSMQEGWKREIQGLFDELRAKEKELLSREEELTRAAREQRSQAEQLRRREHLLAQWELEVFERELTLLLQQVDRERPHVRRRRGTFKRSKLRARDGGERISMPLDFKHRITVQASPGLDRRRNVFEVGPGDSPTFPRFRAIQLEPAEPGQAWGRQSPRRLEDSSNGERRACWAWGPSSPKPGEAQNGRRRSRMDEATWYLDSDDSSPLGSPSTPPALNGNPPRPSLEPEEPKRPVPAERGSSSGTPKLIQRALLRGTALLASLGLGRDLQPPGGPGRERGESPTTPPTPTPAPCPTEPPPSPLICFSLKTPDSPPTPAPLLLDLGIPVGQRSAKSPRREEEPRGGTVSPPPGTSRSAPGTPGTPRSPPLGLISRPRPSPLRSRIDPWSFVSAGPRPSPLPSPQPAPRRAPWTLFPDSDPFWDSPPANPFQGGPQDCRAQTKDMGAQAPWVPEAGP
T3 sequence (Q13882 whole entry): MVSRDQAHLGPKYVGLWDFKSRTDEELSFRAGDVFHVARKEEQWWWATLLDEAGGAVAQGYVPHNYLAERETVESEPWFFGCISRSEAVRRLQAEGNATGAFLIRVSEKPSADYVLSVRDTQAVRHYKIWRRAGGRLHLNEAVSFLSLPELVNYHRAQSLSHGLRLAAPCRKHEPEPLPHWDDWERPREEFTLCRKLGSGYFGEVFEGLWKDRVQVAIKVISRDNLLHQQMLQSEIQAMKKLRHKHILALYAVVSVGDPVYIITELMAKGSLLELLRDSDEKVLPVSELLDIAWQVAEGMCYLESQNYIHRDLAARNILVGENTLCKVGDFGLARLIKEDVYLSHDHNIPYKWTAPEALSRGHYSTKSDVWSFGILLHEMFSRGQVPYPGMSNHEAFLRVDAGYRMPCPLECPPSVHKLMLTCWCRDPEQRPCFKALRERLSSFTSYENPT
Sequence of LIMK2 (P53671 whole entry): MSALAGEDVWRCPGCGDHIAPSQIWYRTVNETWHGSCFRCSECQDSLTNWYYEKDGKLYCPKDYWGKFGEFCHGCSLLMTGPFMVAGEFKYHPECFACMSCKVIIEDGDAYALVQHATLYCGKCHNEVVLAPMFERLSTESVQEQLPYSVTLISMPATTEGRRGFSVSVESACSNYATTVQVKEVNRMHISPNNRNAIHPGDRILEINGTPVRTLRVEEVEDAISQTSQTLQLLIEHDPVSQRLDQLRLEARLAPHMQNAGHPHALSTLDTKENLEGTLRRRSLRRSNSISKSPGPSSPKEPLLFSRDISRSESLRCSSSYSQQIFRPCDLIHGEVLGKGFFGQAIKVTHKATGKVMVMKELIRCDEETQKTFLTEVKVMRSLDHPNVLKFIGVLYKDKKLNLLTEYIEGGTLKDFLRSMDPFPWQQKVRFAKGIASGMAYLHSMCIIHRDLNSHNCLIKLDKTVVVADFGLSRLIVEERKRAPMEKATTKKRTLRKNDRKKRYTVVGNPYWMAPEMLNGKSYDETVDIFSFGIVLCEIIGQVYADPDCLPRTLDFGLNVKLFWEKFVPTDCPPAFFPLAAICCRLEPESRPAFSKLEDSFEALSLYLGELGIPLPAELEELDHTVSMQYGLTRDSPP

In the case of Cc1ccc(NC(=O)c2cccc(C(F)(F)F)c2)cc1Nc1cc(-c2cccnc2)nc2[nH]ccc12 [HZX-02-059], the remaining binding at 1 µM [1] is reported as 97%, the remaining binding at 1 µM (MAP3K1) is reported as 56% and the remaining binding at 1 µM (BMX) is reported as 80%. It also gave a remaining binding at 1 µM (MAPKAPK2) of 80%, a remaining binding at 1 µM (FLT1) of 96% and a remaining binding at 1 µM (PIK3CA(M1043I)) of 92%. The remaining binding at 1 µM (MKNK2) was 80%, the remaining binding at 1 µM (IKK-beta) was 100% and the remaining binding at 1 µM (BRK) was 83%. It also gave a remaining binding at 1 µM (DCAMKL3) of 81%, a remaining binding at 1 µM (PHKG1) of 97% and a remaining binding at 1 µM (MLK3) of 87%. For the same compound, the remaining binding at 1 µM (BRSK1) was 97%, the remaining binding at 1 µM (CAMK2G) was 97% and the remaining binding at 1 µM (FRK) was 4.7%. It also gave a remaining binding at 1 µM (CASK) of 92%, a remaining binding at 1 µM (WEE1) of 95% and a remaining binding at 1 µM (LIMK2) of 95%. It also gave a remaining binding at 1 µM (BIKE) of 94%, a remaining binding at 1 µM (YES) of 86% and a remaining binding at 1 µM (MST2) of 97%. For the same compound, the remaining binding at 1 µM (TXK) was 78%, the remaining binding at 1 µM (ACVR2A) was 75% and the remaining binding at 1 µM (EPHA3) was 27%.
